Assay results as given in the NIST ThermoML archive (doi:10.1016/j.jct.2017.03.026).
Several values for one entry are separate records, joined by “and”; a condition that tells them apart may be missing. Identical values can stand only once.

Experiment: molar heat capacity at constant pressure
Conditions: 101.33 kPa, Crystal, Small (less than 1 g) adiabatic calorimetry

O.O.O.O.O.O=S(=O)([O-])[O-].[Cu+2] [copper(II) sulfate pentahydrate]
Conditions	molar heat capacity at constant pressure
233.45 K	239.84 J/K/mol
234.05 K	245.57 J/K/mol
234.17 K	240.04 J/K/mol
234.4 K	246.29 J/K/mol
234.6 K	245.97 J/K/mol
234.74 K	245.84 J/K/mol
235.43 K	246.76 J/K/mol
235.54 K	247.78 J/K/mol
235.9 K	247.43 J/K/mol
236.03 K	249.81 J/K/mol
236.12 K	248.09 J/K/mol
236.33 K	241.79 J/K/mol
236.34 K	242 J/K/mol
236.67 K	248.93 J/K/mol
236.8 K	248.39 J/K/mol
237.18 K	249.45 J/K/mol
237.49 K	248.39 J/K/mol
237.8 K	249.96 J/K/mol
238.17 K	249.66 J/K/mol
238.48 K	250.93 J/K/mol
238.49 K	242.57 J/K/mol
238.86 K	250.68 J/K/mol
238.93 K	250.66 J/K/mol
239.22 K	244.58 J/K/mol
239.28 K	253.63 J/K/mol
239.54 K	251.41 J/K/mol
239.78 K	251.78 J/K/mol
240 K	244.6 J/K/mol
240.05 K	252.46 J/K/mol
240.22 K	252.08 J/K/mol
240.64 K	245.25 J/K/mol
240.9 K	252.78 J/K/mol
241.06 K	253.96 J/K/mol
241.18 K	254.16 J/K/mol
241.62 K	254.68 J/K/mol
242.1 K	246.15 J/K/mol
242.31 K	255.3 J/K/mol and 255.28 J/K/mol
242.34 K	255.3 J/K/mol
242.5 K	257.5 J/K/mol
242.81 K	246.88 J/K/mol
243 K	255.25 J/K/mol
243.44 K	256.35 J/K/mol
243.63 K	256.1 J/K/mol
243.67 K	255.75 J/K/mol
244.35 K	256.2 J/K/mol
244.56 K	257.83 J/K/mol
244.9 K	258.25 J/K/mol
244.96 K	248.55 J/K/mol
244.99 K	248.48 J/K/mol
245.02 K	258.05 J/K/mol
245.68 K	259.42 J/K/mol
245.7 K	261.47 J/K/mol and 258.65 J/K/mol
246.21 K	260.25 J/K/mol
246.37 K	259.35 J/K/mol
246.81 K	261 J/K/mol
247.04 K	259.87 J/K/mol
247.17 K	250.06 J/K/mol
247.49 K	261.87 J/K/mol
247.71 K	260.55 J/K/mol
247.81 K	250.77 J/K/mol
247.93 K	262.47 J/K/mol
248.38 K	262.79 J/K/mol
248.76 K	263.79 J/K/mol
248.87 K	265.57 J/K/mol
249.05 K	263.94 J/K/mol and 263.89 J/K/mol
249.35 K	251.83 J/K/mol
249.73 K	264.77 J/K/mol
250 K	252.3 J/K/mol
250.03 K	265.72 J/K/mol
250.16 K	265.92 J/K/mol
250.4 K	265.12 J/K/mol
250.65 K	253.29 J/K/mol
250.81 K	264.67 J/K/mol
251.06 K	267.06 J/K/mol
251.11 K	266.37 J/K/mol
251.28 K	267.34 J/K/mol
251.4 K	267.19 J/K/mol
251.54 K	253.61 J/K/mol
251.7 K	267.09 J/K/mol
251.73 K	268.24 J/K/mol
252 K	268.41 J/K/mol
252.02 K	268.79 J/K/mol
252.3 K	268.34 J/K/mol
252.43 K	268.74 J/K/mol
252.44 K	269.16 J/K/mol
252.6 K	268.74 J/K/mol
252.91 K	269.29 J/K/mol
253.1 K	269.76 J/K/mol
253.21 K	269.44 J/K/mol
253.49 K	254.99 J/K/mol
253.51 K	272.53 J/K/mol
253.55 K	268.86 J/K/mol
253.73 K	255.6 J/K/mol
253.77 K	270.41 J/K/mol
253.82 K	269.46 J/K/mol
254.13 K	270.51 J/K/mol
254.44 K	270.78 J/K/mol
254.48 K	271.06 J/K/mol
254.67 K	267.86 J/K/mol
254.79 K	270.11 J/K/mol
255.09 K	270.86 J/K/mol
255.11 K	269.99 J/K/mol
255.15 K	266.89 J/K/mol
255.4 K	268.06 J/K/mol
255.71 K	269.24 J/K/mol
255.78 K	268.39 J/K/mol
255.79 K	265.69 J/K/mol
255.93 K	257.4 J/K/mol
256.02 K	270.78 J/K/mol
256.31 K	256.81 J/K/mol
256.34 K	267.49 J/K/mol
256.46 K	267.76 J/K/mol
256.65 K	267.31 J/K/mol
256.92 K	265.79 J/K/mol
256.96 K	267.59 J/K/mol
257.13 K	266.91 J/K/mol
257.27 K	266.51 J/K/mol
257.59 K	266.84 J/K/mol
257.81 K	266.84 J/K/mol
257.9 K	267.19 J/K/mol
258.04 K	266.69 J/K/mol
258.2 K	258.77 J/K/mol
258.23 K	266.29 J/K/mol
258.28 K	269.36 J/K/mol
258.49 K	266.59 J/K/mol
258.54 K	266.91 J/K/mol
258.86 K	266.27 J/K/mol
259.1 K	259.75 J/K/mol
259.16 K	267.91 J/K/mol and 267.81 J/K/mol
259.17 K	266.56 J/K/mol
259.54 K	267.76 J/K/mol
259.84 K	267.96 J/K/mol
259.85 K	268.01 J/K/mol
260 K	260.1 J/K/mol
260.17 K	268.06 J/K/mol
260.28 K	269.14 J/K/mol
260.42 K	260.6 J/K/mol
260.48 K	269.74 J/K/mol
260.5 K	268.36 J/K/mol
260.81 K	268.66 J/K/mol
261.13 K	268.81 J/K/mol
261.17 K	270.24 J/K/mol
261.39 K	272.21 J/K/mol
261.41 K	270.41 J/K/mol
261.45 K	269.31 J/K/mol
261.76 K	270.09 J/K/mol
261.85 K	271.36 J/K/mol
261.91 K	260.82 J/K/mol
262.08 K	270.58 J/K/mol
262.39 K	270.73 J/K/mol
262.53 K	272.18 J/K/mol and 271.23 J/K/mol
262.65 K	262.42 J/K/mol
262.71 K	270.93 J/K/mol
263.03 K	271.38 J/K/mol
263.24 K	272.33 J/K/mol
263.34 K	272.38 J/K/mol
263.65 K	274.08 J/K/mol
263.66 K	273.13 J/K/mol
